According to paper PMC13408522, “The Effect of Glycosylation on Biodistribution and Cytotoxicity of ^99mTc-Radiolabeled Luteolin” (Advanced Pharmaceutical Bulletin, 2025):
Entries after “also recorded” stand apart in the source; their conditions may differ. Like-named read-outs stand apart in the source and are kept apart here.

What was measured:
HepG2 cells [1] = assay: MTT cell viability assay, HepG2; type: cell-based; conditions: 5-200 µg/mL, 24 h (LuG also 48 and 72 h)
Protocol: (§1) According to the biodistribution results of Lu and LuG in the previous step, three cell lines were selected for further analysis. HUVEC cell line (an endothelial cell that was isolated from the umbilical cord vein) as a normal cell, SW480 as a colorectal cancer cell line, and HepG2 as a hepatocellular carcinoma cell line were obtained from the cell bank of Roshd Azma Company. They were cultured in Dulbecco’s Modified Eagle Medium (DMEM) supplemented with FBS 10% (Fetal Bovine Serum) and Pen/Sterp 10^4 U/mL (Penicillin- Streptomycin) at 37°C and 5% carbon dioxide (CO2). Then, 10^5 cells/mL were seeded in 96-well cell culture plates and incubated for 24 h.
(§2) After 24 h, the cell lines were treated with Lu and LuG (5, 10, 25, 50, 75, 100, 200 µg/mL). The cytotoxicity effect of Lu and LuG was measured using the MTT (3-[4,5-dimethylthiazol-2-yl]- 2,5-diphenyltetrazolium bromide) assay for 24 h. Next, 20 μL of MTT solution (5 mg/mL) was added to each well, and the complexes were incubated at 37°C for 4 hours. Afterward, the culture medium was removed and replaced with DMSO 200 μL). The absorbance of each well was determined at 570 nm using an ELISA reader, and the cell viability percentage was calculated relative to the control group.

SW480 cells = assay: MTT cell viability assay, SW480; type: cell-based; conditions: 5-200 µg/mL, 24 h
Protocol: as §1, §2

HUVEC cells = assay: MTT cell viability assay, HUVEC normal cells; type: cell-based; conditions: 5-200 µg/mL, 24 h
Protocol: as §1, §2

HepG2 cells [2] = conditions: cited from earlier work
[3] = Biodistribution of 99mTc-radiolabeled flavonoids, organ radioactivity after SPECT imaging; set-up: species or system Wistar-Albino rats; conditions: rat, in vivo
Protocol: Five milligrams of tin chloride (SnCl2) was dissolved in 1 mL of hydrochloric acid 10% and diluted with 3 mL of distilled water, and the pH was adjusted to 7. Then, 1 mg of Lu and LuG and about 4 mCi of fresh pertechnetate (^99mTcO4) in 2 mL of NaCl were added to the complex. Afterward, it was incubated at room temperature for 20 minutes.
An intraperitoneal injection of a ketamine and xylazine mixture anesthetized the Wistar-Albino rats. About 1.4 mCi of flavonoid-^99mTc complex (^99mTc-Lu and ^99mTc-LuG) was injected through the tail vein. The imaging was performed using SPECT (Single-Photon Emission Computed Tomography) at 0, 5, 15, 30, 60, and 90 min. Then, the animals were sacrificed in accordance with all ethical considerations, and each organ was carefully separated. The percentage of radioactivity in each organ was calculated by dividing the activity counted by the dose calibrator by the total radioactivity. This method ensured accurate assessment of the biodistribution of the radiolabeled compounds within the various organs.
Organ accumulation of ^99mTc−Lu/^99mTc−LuG (%)=(Amount of radioactivity counted in each organ/Amount of radioactivity counted in whole body)×100

HepG2 cells [4] = assay: Annexin V-FITC/PI flow cytometry for apoptosis/necrosis; type: cell-based; conditions: HepG2, 5, 30, 50 µg/mL
Protocol: According to the results of the previous steps, LuG was selected for flow cytometry testing on the HepG2 cancer cell line. […] HepG2 cells were treated with LuG (5, 30, 50 µg/mL) for 48 h and then washed with PBS. Next, 300 µL of binding buffer was added to 1 × 10^6 cells and incubated for 15 min at 25°C in away from the light with 4 µL of FITC Annexin V and 2 µL of PI. To investigate apoptotic or necrotic pathways, data were analyzed by FlowJo software. […] Additionally, cells without any treatment (negative control) and those treated with LuG (positive control) were designated as “Auto” and “Unstained”, respectively.

HepG2 cells [5] = assay: Cell cycle analysis by PI flow cytometry; type: cell-based
Protocol: HepG2 cells were seeded in 6-well plates and treated with various concentrations of Luteolin-7-O-glucoside for 24 h. After treatment, the cells were fixed in a solution of ethanol: water (7:3) at -20 °C. Then, ethanol-fixed cells were washed with PBS and incubated with RNase A (100 μL) for 30 min. Following the RNase treatment, the cells were incubated in a PI/Triton X-100 solution for an additional 30 minutes. The samples were analyzed using a flow cytometer (FACSCalibur), and the data were assessed with FlowJo version 10. Finally, the G0/G1 phase (2N DNA content), S phase (intermediate DNA content), and G2/M phase (4N DNA content) were calculated.[13]

HepG2 cells [6] = test system: HepG2 cells; set-up: method as in PMID 32129972; conditions: cited from earlier work
HepG2 cells [7] = test system: HepG2 cells; set-up: method as in PMID 24257119; conditions: 24 h treatment; cited from earlier work
[8] = listed as luteolin-7-O-glucoside

## O=c1cc(-c2ccc(O)c(O)c2)oc2cc(O)cc(O)c12 [Lu, 3′,4′,5,7-tetrahydroxy flavone]
HepG2 cells [1]
  cytotoxicity on HepG2 cells (in words): less accumulation and cytotoxicity
HepG2 cells [1]; listed as luteolin
  cytotoxicity on HepG2 cells (in words): less effective against HepG2 cells compared to the glycone form
SW480 cells
  cytotoxicity on SW480 cells (in words): no inhibitory effects
HUVEC cells
  cytotoxicity on normal HUVEC cells (in words): did not demonstrate any cytotoxicity
HepG2 cells [2]; luteolin: ref 32
  apoptosis in HepG2 cells: triggers classical mitochondrial apoptosis

## O=c1cc(-c2ccc(O)c(O)c2)oc2cc(O[C@@H]3O[C@H](CO)[C@@H](O)[C@H](O)[C@H]3O)cc(O)c12 [LuG, luteolin-7-O-glucoside]
[3]
  elimination phase of the radiolabeled compound (in words): more rapidly than that of its aglycone form
HepG2 cells [1]
  cytotoxicity on HepG2 cells (in words): significant cytotoxicity
HepG2 cells [1]; [8]
  cytotoxicity on HepG2 cells (in words): highest cytotoxic effect; also recorded: effectively inhibits HepG2 cell viability
SW480 cells
  cytotoxicity on SW480 cells (in words): negligible toxicity; also recorded: no inhibitory effects
HUVEC cells
  cytotoxicity on normal HUVEC cells (in words): negligible toxicity; also recorded: did not demonstrate any cytotoxicity
HepG2 cells [4]
  apoptosis/necrosis of HepG2 cells (in words): non-apoptotic cell death; also recorded: no significant increase
HepG2 cells [4]; [8]
  apoptosis/necrosis of HepG2 cells (in words): did not involve necrotic or apoptotic pathways
HepG2 cells [5]; HepG2
  effect on cell cycle progression (in words): impaired G1 to S progression
HepG2 cells [5]; HepG2, 24 h
  change in S phase versus control: no significant changes
  decrease of 4N DNA content (G2/M phase) versus control: about 7%
  increase of 2N DNA content (G0/G1 phase) versus control: approximately 5%
HepG2 cells [6]
  effect on viability of HepG2 cell line: dose-dependent effect
HepG2 cells [2]; LuG: ref 31
  apoptosis in HepG2 cells: induced apoptotic features
HepG2 cells [7]
  cell cycle effect in HepG2: induced G2/M phase
